# Values of other authors as cited in Sander's compilation of Henry's law constants (doi:10.1016/0045-6535(88)90142-7).
# Assay: Henry solubility constant Hcp at 298.15 K (mol/(m3 Pa))
# Conditions: reference: Ryan et al. (1988); cited value
row,Structure (SMILES),Henry solubility constant Hcp
1,O=[N+]([O-])c1ccccc1O [2-nitrophenol],1.3
2,c1cc2c3c(cccc3c1)CC2 [acenaphthene],0.04
3,Clc1ccc2ccccc2c1 [2-chloronaphthalene],0.031
4,c1ccc2ccccc2c1 [naphthalene],0.02
5,"ClC(Cl)C(Cl)Cl [1,1,2,2-tetrachloroethane]",0.025
6,ClC(Cl)(Cl)C(Cl)(Cl)Cl [hexachloroethane],0.00098
7,c1ccccc1 [benzene],0.0018
8,C1=Cc2cccc3cccc1c23 [acenaphthylene],0.084
9,CC(CCl)OC(C)CCl (stereo not drawn) [bis-(2-chloroisopropyl) ether],0.0086
10,c1ccc2c(c1)-c1cccc3cccc-2c13 [benzo[jk]fluorene],1
11,ClC(Cl)=C(Cl)Cl [tetrachloroethene],0.00063
12,ClCOCCl [bis-(chloromethyl) ether],0.0047
13,"CC(Cl)(Cl)Cl [1,1,1-trichloroethane]",0.00031
14,"Oc1ccc(Cl)cc1Cl [2,4-dichlorophenol]",1.8
15,c1ccc2cc3ccccc3cc2c1 [anthracene],0.037
16,COC(=O)c1ccccc1C(=O)OC [dimethyl phthalate],50
17,CCBr [bromoethane],9.2e-05
18,ClC1=C(Cl)C2(Cl)C3C4OC4C(Cl)C3C1(Cl)C2(Cl)Cl (stereo not drawn) [heptachlorepoxide],13
19,"Clc1ccc(C(c2ccc(Cl)cc2)C(Cl)(Cl)Cl)cc1 [1,1,1-trichloro-2,2-bis-(4-chlorophenyl)-ethane]",0.2
20,ClC1=C(Cl)[C@]2(Cl)[C@H]3[C@H]([C@@H]4C=C[C@H]3C4)[C@@]1(Cl)C2(Cl)Cl [aldrin],0.82
21,"Clc1ccc(Cl)cc1 [1,4-dichlorobenzene]",0.0041

row,Structure (SMILES),Henry solubility constant Hcp
1,"ClCC(Cl)Cl [1,1,2-trichloroethane]",0.0013
2,"CC(Cl)CCl (stereo not drawn) [1,2-dichloropropane]",0.0034
3,"O=[N+]([O-])c1ccc(O)c([N+](=O)[O-])c1 [2,4-dinitrophenol]",15000
4,"Cc1ccc(O)c(C)c1 [1-hydroxy-2,4-dimethylbenzene]",0.54
5,"c1ccc2c(c1)Cc1ccccc1-2 [2,3-benzindene]",0.084
6,ClC1=C(Cl)C(Cl)(Cl)C(Cl)=C1Cl [hexachlorocyclopentadiene],0.00027
7,"ClC1C(Cl)C(Cl)C(Cl)C(Cl)C1Cl (stereo not drawn) [β-1,2,3,4,5,6-hexachlorocyclohexane]",0.67
8,C=CC=O [propenal],0.14
9,c1ccc2c(c1)ccc1ccccc12 [phenanthrene],0.25
10,FC(F)(Cl)Cl [dichlorodifluoromethane],6.4e-06
11,CCCl [chloroethane],0.00066
12,CCc1ccccc1 [ethylbenzene],0.0016
13,"ClC=CCCl [1,3-dichloropropene]",0.0081
14,ClC1=C(Cl)[C@]2(Cl)[C@@H]3[C@H]4C[C@H]([C@@H]5O[C@H]45)[C@@H]3[C@@]1(Cl)C2(Cl)Cl [endrin],24
15,CCCCCCCCOC(=O)c1ccccc1C(=O)OCCCCCCCC [dioctyl phthalate],34
16,ClC=C(Cl)Cl [trichloroethene],0.0011
17,CCCCOC(=O)c1ccccc1C(=O)OCCCC [dibutyl phthalate],34
18,C=CCl [chloroethene],0.00065
19,CCCCOC(=O)c1ccccc1C(=O)OCc1ccccc1 [butyl benzyl phthalate],9.6
20,c1ccc2c(c1)ccc1c3ccccc3ccc21 [chrysene],0.0046
21,"Clc1cccc(Cl)c1 [1,3-dichlorobenzene]",0.0037

row,Structure (SMILES),Henry solubility constant Hcp
1,BrC(Br)Br [tribromomethane],0.017
2,"ClCCOCCCl [1,5-dichloro-3-oxapentane]",8.6
3,Cc1ccccc1 [methylbenzene],0.0014
4,c1ccc2c(c1)cc1ccc3cccc4ccc2c1c34 [benzo[a]pyrene],0.00082
5,ClC1=C(Cl)C2(Cl)C3C(Cl)C=CC3C1(Cl)C2(Cl)Cl (stereo not drawn) [heptachlor],0.0065
6,Clc1ccccc1 [chlorobenzene],0.0027
7,ClC(Cl)=C(Cl)C(Cl)=C(Cl)Cl [hexachlorobutadiene],0.00094
8,Oc1ccccc1Cl [2-hydroxychlorobenzene],2.1
9,O=[N+]([O-])c1ccc(O)cc1 [4-nitrophenol],1.6
10,ClCCOCOCCCl [bis-(2-chloroethoxy)-methane],37
11,Cc1cc(O)ccc1Cl [4-chloro-3-methylphenol],4
12,C=CC#N [2-propenenitrile],0.11
13,"ClC(Cl)=C(c1ccc(Cl)cc1)c1ccc(Cl)cc1 [1,1-dichloro-2,2-bis-(4-chlorophenyl)-ethene]",0.45
14,ClC(Cl)(Cl)Cl [tetrachloromethane],0.00045
15,ClC1=C(Cl)[C@]2(Cl)[C@@H]3[C@@H]4C[C@@H]([C@H]5O[C@@H]45)[C@@H]3[C@@]1(Cl)C2(Cl)Cl [dieldrin],1.3
16,ClCCl [dichloromethane],0.0047
17,ClC1=C(Cl)[C@]2(Cl)C3C(Cl)C(Cl)CC3[C@@]1(Cl)C2(Cl)Cl (stereo partly drawn) [chlordane],0.1
18,"C=C(Cl)Cl [1,1-dichloroethene]",0.0022
19,CCCCC(CC)COC(=O)c1ccccc1C(=O)OCC(CC)CCCC (stereo not drawn) [bis(2-ethylhexyl)-phthalate],34
20,"Clc1ccc(C(c2ccc(Cl)cc2)C(Cl)Cl)cc1 [1,1-dichloro-2,2-bis-(4-chlorophenyl)-ethane]",0.00081
21,O=[N+]([O-])c1ccccc1 [nitrobenzene],0.75
